Source: US9493487B2, “3-(1H-imidazo[4,5-C]pyridin-2-YL)-1H-pyrazolo[3,4-B]pyridine and therapeutic uses thereof” (Samumed, LLC, priority 2014, dated 2016)

What was measured:
[1] = system: Wnt activity (Sp5-Luc reporter, SW480 colon carcinoma cells); test: Sp5-Luc Wnt reporter gene assay in SW480 colon carcinoma cells; format: cell-based; details: Homo sapiens; SW480 cells stably expressing Sp5-Luc reporter; 42 h incubation; BrightGlo luminescence normalized to DMSO
Text: The screening assay for Wnt activity is described as follows. Reporter cell lines can be generated by stably transducing cancer cell lines (e.g., colon cancer) or primary cells (e.g., IEC-6 intestinal cells) with a lentiviral construct that includes a Wnt-responsive promoter driving expression of the firefly luciferase gene.
SW480 colon carcinoma cells were transduced with a lentiviral vector expressing luciferase with a human Sp5 promoter consisting of a sequence of eight TCF/LEF binding sites. SW480 cells stably expressing the Sp5-Luc reporter gene and a hygromycin resistance gene were selected by treatment with 150 μg/ml of hygromycin for 7 days. These stably transduced SW480 cells were expanded in cell culture and used for all further screening activities. For Sp5-Luc reporter gene assays, the cells were plated at 10,000 cells/well in 96-well plates with growth medium containing 10% fetal calf serum and incubated overnight at 37° C. and 5% CO2. Each compound was dissolved in DMSO as a 10 mM stock in standard j-vials and used to prepare compound source plates in dose-response format with 3-fold serial dilutions and a 10 mM top concentration. Compound transfer from serially diluted source plates to assay plates containing the cells was accomplished using a pintool (Multimek 96, Beckman equipped with V&P Scientific FP1S50H pins) based liquid handling protocol. This protocol used a slotted pin to transfer 50 nl of compound from a source plate well to an assay plate well containing 50 μl of cells in growth medium. […] Control wells received 50 nl of DMSO treatment for normalization and calculating IC50 values. The treated cells were incubated at 37° C. and 5% CO2 for an additional forty-two hours. Following incubation, the growth medium was removed and 50 μl of BrightGlo luminescence reagent (Promega) was added to each well of the 96-well assay plates. The plates were placed on an orbital shaker for 5 min and then luminescence was quantified on the Victor3 (Perkin Elmer) plate reader. Readings were normalized to DMSO only treated cells, and normalized activities were utilized for IC50 calculations using the dose-response log (inhibitor) vs. response-variable slope (four parameters) nonlinear regression feature available in GraphPad Prism 5.0 or 6.0.

[2] = system: primary human fibroblasts derived from IPF patients (LL29 cells); test: Inhibition of TGF-β1-induced fibrosis (αSMA staining) in primary human fibroblasts from IPF patients; format: cell-based; details: Fibroblast, 96 h, TGF-β1 20 ng/mL, 4 days, 11-point dose-response 10 μM to 1.87 nM
Text: The above synthesized compounds were screened using primary human fibroblasts (derived from IPF patients) treated with TGF-β1 to determine their ability to inhibit the fibrotic process.
Primary human fibroblasts derived from IPF patients (LL29 cells) [^1Xiaoqiu Liu, et. al., “Fibrotic Lung Fibroblasts Show Blunted Inhibition by cAMP Due to Deficient cAMP Response Element-Binding Protein Phosphorylation”, Journal of Pharmacology and Experimental Therapeutics (2005), 315(2), 678-687; ^2Watts, K. L., et. al., “RhoA signaling modulates cyclin D1 expression in human lung fibroblasts; implications for idiopathic pulmonary fibrosis”, Respiratory Research (2006), 7(1), 88] were obtained from American Type Culture Collection (ATCC) and expanded in F12 medium supplemented with 15% Fetal Bovine Serum and Penicillin/Streptomycin.
Each compound was dissolved in DMSO as a 10 mM stock and used to prepare compound source plates. Serial dilution (1:2, 11-point dose-response curves from 10 μM to 1.87 nM) and compound transfer was performed using the ECHO 550 (Labcyte, Sunnyvale, Calif.) into 384-well clear bottom assay plates (Greiner Bio-One) with appropriate DMSO backfill for a final DMSO concentration of 0.1%. LL29 cells were plated at 1,500 cells/well in 80 μl/well F12 medium supplemented with 1% Fetal Bovine Serum. One hour after addition of the cells, TGF-β1 (Peprotech; 20 ng/mL) was added to the plates to induce fibrosis (ref. 1 and 2 above). Wells treated with TGF-β1 and containing DMSO were used as controls. Cells were incubated at 37° C. and 5% CO2 for 4 days. Following incubation for 4 days, SYTOX green nucleic acid stain (Life Technologies [Thermo Fisher Scientific]) was added to the wells at a final concentration of 1 uM and incubated at room temperature for 30 min. Cells were then fixed using 4% formaldehyde (Electron Microscopy Sciences), washed 3 times with PBS followed by blocking and permeabilization using 3% Bovine Serum Albumin (BSA; Sigma) and 0.3% Triton X-100 (Sigma) in PBS. Cells were then stained with antibody specific to α-smooth muscle actin (αSMA; Abcam) (ref 1 and 2 above) in 3% Bovine Serum Albumin (BSA; Sigma) and 0.3% Triton X-100 (Sigma) in PBS, and incubated overnight at 4° C. Cells were then washed 3 times with PBS, followed by incubation with Alexa Flor-647 conjugated secondary antibody (Life Technologies [Thermo Fisher Scientific]) and DAPI at room temperature for 1 hour. Cells were then washed 3 times with PBS and plates were sealed for imaging. αSMA staining was imaged by excitation at 630 nm and emission at 665 nm and quantified using the Compartmental Analysis program on the CellInsight CX5 (Thermo Scientific). Dead or apoptotic cells were excluded from analysis based on positive SYTOX green staining. % of total cells positive for αSMA were counted in each well and normalized to the average of 11 wells treated with TGF-β1 on the same plate using Dotmatics' Studies Software. The normalized averages (fold change over untreated) of 3 replicate wells for each compound concentration were used to create dose-responses curves and EC50 values were calculated using non-linear regression curve fit in the Dotmatics' Studies Software. The EC50 values are reported.

SMILES | IC50 [1] [µM] | EC50 [2] [µM]
CN(C)c1cncc(-c2cnc3[nH]nc(-c4nc5c(-c6cccc(F)c6)nccc5[nH]4)c3c2)c1 [Compound 7, 5-(3-(4-(3-Fluorophenyl)-1H-imidazo[4,5-c]pyridin-2-yl)-1H-pyrazolo[3,4-b]pyridin-5-yl)-N,N-dimethylpyridin-3-amine] | 0.0353 | 0.365
CN(C)Cc1cncc(-c2cnc3[nH]nc(-c4nc5c(-c6cccc(F)c6)nccc5[nH]4)c3c2)c1 [Compound 13, 1-(5-(3-(4-(3-Fluorophenyl)-1H-imidazo[4,5-c]pyridin-2-yl)-1H-pyrazolo[3,4-b]pyridin-5-yl)pyridin-3-yl)-N,N-dimethylmethanamine] | 0.339 | 0.03
O=C(Nc1cncc(-c2cnc3[nH]nc(-c4nc5c(-c6cccc(F)c6)nccc5[nH]4)c3c2)c1)C1CC1 [Compound 19, N-(5-(3-(4-(3-Fluorophenyl)-1H-imidazo[4,5-c]pyridin-2-yl)-1H-pyrazolo[3,4-b]pyridin-5-yl)pyridin-3-yl)cyclopropanecarboxamide] | 0.005 | 0.027
CC(C)CC(=O)Nc1cncc(-c2cnc3[nH]nc(-c4nc5c(-c6ccc(F)cc6)nccc5[nH]4)c3c2)c1 [Compound 28, N-(5-(3-(4-(4-Fluorophenyl)-1H-imidazo[4,5-c]pyridin-2-yl)-1H-pyrazolo[3,4-b]pyridin-5-yl)pyridin-3-yl)-3-methylbutanamide] | 0.0377 | 0.881
CC(C)(C)C(=O)Nc1cncc(-c2cnc3[nH]nc(-c4nc5c(-c6ccc(F)cc6)nccc5[nH]4)c3c2)c1 [Compound 34, N-(5-(3-(4-(4-Fluorophenyl)-1H-imidazo[4,5-c]pyridin-2-yl)-1H-pyrazolo[3,4-b]pyridin-5-yl)pyridin-3-yl)pivalamide] | 0.152 | 3.06
Fc1ccc(-c2nccc3[nH]c(-c4n[nH]c5ncc(-c6cncc(CN7CCCC7)c6)cc45)nc23)cc1 [Compound 40, 3-(4-(4-Fluorophenyl)-1H-imidazo[4,5-c]pyridin-2-yl)-5-(5-(pyrrolidin-1-ylmethyl)pyridin-3-yl)-1H-pyrazolo[3,4-b]pyridine] | > 10 | ≥ 9.99
CC(C)C(=O)Nc1cncc(-c2cnc3[nH]nc(-c4nc5c(-c6ccccc6F)nccc5[nH]4)c3c2)c1 [Compound 61, N-(5-(3-(4-(2-Fluorophenyl)-1H-imidazo[4,5-c]pyridin-2-yl)-1H-pyrazolo[3,4-b]pyridin-5-yl)pyridin-3-yl)isobutyramide] | 0.028 | > 10
CC(C)(C)CC(=O)Nc1cncc(-c2cnc3[nH]nc(-c4nc5c(-c6ccccc6F)nccc5[nH]4)c3c2)c1 [Compound 68, N-(5-(3-(4-(2-Fluorophenyl)-1H-imidazo[4,5-c]pyridin-2-yl)-1H-pyrazolo[3,4-b]pyridin-5-yl)pyridin-3-yl)-3,3-dimethylbutanamide] | 0.0957 | 0.93
O=C(Nc1cncc(-c2cnc3[nH]nc(-c4nc5c(-c6ccccc6F)nccc5[nH]4)c3c2)c1)C1CCCC1 [Compound 73, N-(5-(3-(4-(2-Fluorophenyl)-1H-imidazo[4,5-c]pyridin-2-yl)-1H-pyrazolo[3,4-b]pyridin-5-yl)pyridin-3-yl)cyclopentanecarboxamide] | 0.0602 | 0.611
CC(C)C(=O)Nc1cncc(-c2cnc3[nH]nc(-c4nc5c(-c6cccnc6)nccc5[nH]4)c3c2)c1 [Compound 87, N-(5-(3-(4-(Pyridin-3-yl)-1H-imidazo[4,5-c]pyridin-2-yl)-1H-pyrazolo[3,4-b]pyridin-5-yl)pyridin-3-yl)isobutyramide] | > 10 | 0.009
CC(C)Nc1cncc(-c2cnc3[nH]nc(-c4nc5c(-c6cccnc6)nccc5[nH]4)c3c2)c1 [Compound 90, N-Isopropyl-5-(3-(4-(pyridin-3-yl)-1H-imidazo[4,5-c]pyridin-2-yl)-1H-pyrazolo[3,4-b]pyridin-5-yl)pyridin-3-amine] | 0.0797 | ≥ 9.99
c1ccc(CNCc2cncc(-c3cnc4[nH]nc(-c5nc6c(-c7cccnc7)nccc6[nH]5)c4c3)c2)cc1 [Compound 101, N-Benzyl-1-(5-(3-(4-(pyridin-3-yl)-1H-imidazo[4,5-c]pyridin-2-yl)-1H-pyrazolo[3,4-b]pyridin-5-yl)pyridin-3-yl)methanamine] | > 10 | ≥ 9.99
Cc1ccncc1-c1cnc2[nH]nc(-c3nc4c(-c5ccncc5)nccc4[nH]3)c2c1 [Compound 109, 5-(4-Methylpyridin-3-yl)-3-(4-(pyridin-4-yl)-1H-imidazo[4,5-c]pyridin-2-yl)-1H-pyrazolo[3,4-b]pyridine] | > 10 | ≥ 9.99
O=C(Cc1ccccc1)Nc1cncc(-c2cnc3[nH]nc(-c4nc5c(-c6ccncc6)nccc5[nH]4)c3c2)c1 [Compound 114, 2-Phenyl-N-(5-(3-(4-(pyridin-4-yl)-1H-imidazo[4,5-c]pyridin-2-yl)-1H-pyrazolo[3,4-b]pyridin-5-yl)pyridin-3-yl)acetamide] | > 10 | ≥ 9.99
CCCC(=O)Nc1cncc(-c2cnc3[nH]nc(-c4nc5c(-c6ccncc6)nccc5[nH]4)c3c2)c1 [Compound 121, N-(5-(3-(4-(Pyridin-4-yl)-1H-imidazo[4,5-c]pyridin-2-yl)-1H-pyrazolo[3,4-b]pyridin-5-yl)pyridin-3-yl)butyramide] | > 10 | ≥ 9.99
CCNCc1cncc(-c2cnc3[nH]nc(-c4nc5c(-c6ccccn6)nccc5[nH]4)c3c2)c1 [Compound 136, N-((5-(3-(4-(Pyridin-2-yl)-1H-imidazo[4,5-c]pyridin-2-yl)-1H-pyrazolo[3,4-b]pyridin-5-yl)pyridin-3-yl)methyl)ethanamine] | > 10 | 0.009
O=C(Nc1cncc(-c2cnc3[nH]nc(-c4nc5c(-c6ccccn6)nccc5[nH]4)c3c2)c1)c1ccccc1 [Compound 141, N-(5-(3-(4-(Pyridin-2-yl)-1H-imidazo[4,5-c]pyridin-2-yl)-1H-pyrazolo[3,4-b]pyridin-5-yl)pyridin-3-yl)benzamide] | > 10 | ≥ 9.99
CCCCC(=O)Nc1cncc(-c2cnc3[nH]nc(-c4nc5c(-c6ccccn6)nccc5[nH]4)c3c2)c1 [Compound 148, N-(5-(3-(4-(Pyridin-2-yl)-1H-imidazo[4,5-c]pyridin-2-yl)-1H-pyrazolo[3,4-b]pyridin-5-yl)pyridin-3-yl)pentanamide] | 6.16 | 0.009
